Laboratory results published in the NIST ThermoML archive (doi:10.1021/je101156d).
Numbers after ± are expanded uncertainties.

Test: mn = molality of the nth substance listed, in mol/kg
Details: 101.3 kPa, Liquid, Dip Cell

CC(CN1c2ccccc2Sc2ccccc21)N(C)C.Cl (stereo not given) [promethazine hydrochloride] + O
electrical conductivity [S/m]
Details	293.15 K	303.15 K	313.15 K	323.15 K
m1 = 0.00484	0.029 ± 0.04	0.039 ± 0.04	0.05 ± 0.04	0.063 ± 0.04
m1 = 0.00938	0.065 ± 0.04	0.075 ± 0.04	0.092 ± 0.04	0.105 ± 0.04
m1 = 0.0136	0.099 ± 0.04	0.109 ± 0.04	0.131 ± 0.04	0.144 ± 0.04
m1 = 0.0176	0.13 ± 0.04	0.14 ± 0.04	0.167 ± 0.04	0.18 ± 0.04
m1 = 0.0214	0.159 ± 0.04	0.169 ± 0.04	0.199 ± 0.04	0.212 ± 0.04
m1 = 0.025	0.184 ± 0.04	0.194 ± 0.04	0.229 ± 0.04	0.242 ± 0.04
m1 = 0.0284	0.208 ± 0.04	0.218 ± 0.04	0.257 ± 0.04	0.27 ± 0.04
m1 = 0.0316	0.23 ± 0.04	0.24 ± 0.04	0.285 ± 0.04	0.298 ± 0.04
m1 = 0.0346	0.251 ± 0.04	0.261 ± 0.04	0.309 ± 0.04	0.322 ± 0.04
m1 = 0.0375	0.271 ± 0.04	0.281 ± 0.04	0.332 ± 0.04	0.345 ± 0.04
m1 = 0.0402	0.289 ± 0.04	0.299 ± 0.04	0.353 ± 0.04	0.366 ± 0.04
m1 = 0.0429	0.307 ± 0.04	0.317 ± 0.04	0.376 ± 0.04	0.389 ± 0.04
m1 = 0.0453	0.327 ± 0.04	0.337 ± 0.04	0.395 ± 0.04	0.408 ± 0.041
m1 = 0.0477	0.336 ± 0.04	0.346 ± 0.04	0.413 ± 0.041	0.426 ± 0.043
m1 = 0.05	0.347 ± 0.04	0.357 ± 0.04	0.428 ± 0.043	0.447 ± 0.045
m1 = 0.0522	0.358 ± 0.04	0.368 ± 0.04	0.44 ± 0.044	0.457 ± 0.046
m1 = 0.0543	0.369 ± 0.04	0.379 ± 0.04	0.45 ± 0.045	0.467 ± 0.047
m1 = 0.0563	0.38 ± 0.04	0.39 ± 0.04	0.46 ± 0.046	0.477 ± 0.048
m1 = 0.0582	0.391 ± 0.04	0.401 ± 0.04	0.47 ± 0.047	0.487 ± 0.049
m1 = 0.06	0.402 ± 0.04	0.412 ± 0.041	0.48 ± 0.048	0.497 ± 0.05
m1 = 0.0618	0.41 ± 0.041	0.42 ± 0.042	0.488 ± 0.049	0.505 ± 0.051
m1 = 0.0635	0.417 ± 0.042	0.427 ± 0.043	0.496 ± 0.05	0.513 ± 0.051
m1 = 0.0651	0.424 ± 0.042	0.434 ± 0.043	0.504 ± 0.05	0.52 ± 0.052
m1 = 0.0667	0.431 ± 0.043	0.441 ± 0.044	0.512 ± 0.051	0.527 ± 0.053
m1 = 0.0682	0.438 ± 0.044	0.448 ± 0.045	0.52 ± 0.052	0.534 ± 0.053
m1 = 0.0696	0.445 ± 0.045	0.455 ± 0.046	0.528 ± 0.053	0.54 ± 0.054
m1 = 0.0711	0.452 ± 0.045	0.462 ± 0.046	0.536 ± 0.054	0.546 ± 0.055
m1 = 0.0724	0.459 ± 0.046	0.469 ± 0.047	0.542 ± 0.054	0.552 ± 0.055
m1 = 0.0737	0.466 ± 0.047	0.476 ± 0.048	0.548 ± 0.055	0.557 ± 0.056
m1 = 0.075	0.473 ± 0.047	0.483 ± 0.048	0.554 ± 0.055	0.562 ± 0.056
